Read-outs that look alike come from different tables or passages of the source.
What was measured:
Type in all cases: in vivo
[1] = tested on: mouse liver cancer HEPA1-6; conditions: 27 days
Description: (1) 32 8-week-old female C57L mice were selected and divided into 5 cages. HEPA1-6 cells cultured with DMEM + 10% FBS in vitro were washed with PBS and digested with 0.25% trypsin for 3 min. The digestion was terminated with a serum-containing medium, the cells were centrifuged at 2500 rpm for 5 min, the supernatant was discarded, and the cells were resuspended with an appropriate amount of PBS twice. The number of cells was 1.14 × 10^7 cells/mL as counted with a BioRad counting instrument. The cell suspension was placed in an Erlenmeyer flask in an ice bath for later use. The tumor fluid was evenly aspirated using a 1 mL sterile syringe and inoculated 0.2 mL/mouse. After the inoculation was completed, the mice continued to be fed under the initial feeding conditions.
(2) Animal grouping: On the second day after tumor fluid inoculation of C57B/L mice, 32 mice were randomly grouped: 8 mice in a control group, 6 mice in a Compound 4-5 mg/kg group, 6 mice in a Compound 4-10 mg/kg group, 6 mice in a Compound 4-20 mg/kg group, and 6 mice in a positive control drug cyclophosphamide (CTX)-100 mg/kg group. The drug test groups were given the drugs to be tested orally once a day, and the positive control drug CTX was injected intraperitoneally once. The mice were weighed and administered daily.
(3) Drug preparation: The corresponding amounts of the drugs to be tested were weighed according to the final concentrations of the experimental groups. The drugs of the Compound 4-5 mg/kg group, the Compound 4-10 mg/kg group, and the Compound 4-20 mg/kg group were prepared with 5% CMCNa + Tween 80, and CTX was prepared with normal saline. The mice in the control group were given 5% CMCNa solution orally. The dosages were as follows: 0.4 mL/20 g body weight of the animal for intragastric administration, and 0.2 mL/20 g body weight of the animal for intraperitoneal injection.
(4) The animals were sacrificed, and the tumors were separated and weighed. The animals in each group were treated immediately 1 h after administration on the last day and weighed, and the tumor tissue was separated and weighed.

mouse melanoma B16F10 [2] = conditions: 15 days
Description: (§1) (1) 43 8-week-old female C57B/L mice were selected and divided into 5 cages. One preserved B16F10 tumor-bearing female C57L mouse was sacrificed by cervical dislocation. 75% alcohol was sprayed on the skin of the mouse in a laminar flow cabinet, and the tumor tissue of the tumor-bearing mouse was separated by sterilized surgical instruments and cut into a sterilized 5 mL homogenizer with ophthalmic scissors. The tumor tissue was slowly milled on ice to form a tumor fluid. The number of cells was 6.85 × 10^7 cells/mL as counted with a BioRad counting instrument. The tumor fluid was placed in an Erlenmeyer flask in an ice bath for later use. The tumor fluid was evenly aspirated using a 1 mL sterile syringe and inoculated 0.2 mL/C57/L mouse. After the inoculation was completed, the mice continued to be fed under the initial feeding conditions.
(2) Animal grouping and administration: On the second day after tumor fluid inoculation of C57B/L mice, 43 mice were randomly grouped: 10 mice in a control group, 8 mice in a Compound 4-20 mg/kg group, 8 mice in a Compound 4-30 mg/kg group, 8 mice in a Compound 4-40 mg/kg group, and 9 mice in a positive control drug cyclophosphamide CTX-100 mg/kg group. The mice were weighed and administered.
(3) Drug preparation: The corresponding amounts of the drugs were weighed according to the final concentrations of the experimental groups. The drugs of the Compound 4-20 mg/kg group and the Compound 4-30 mg/kg group were prepared with 0.25% CMCNa + Tween 80 and administered orally once a day. The drug of Compound 4-40 mg/kg was prepared with normal saline + Tween 80 and administered intraperitoneally. CTX was prepared with normal saline and administered intraperitoneally once. The mice in the control group were given 0.25% CMCNa solution orally.
(§2) (4) The animals were sacrificed, and the tumors were separated and weighed. The animals in each group were treated immediately 1 h after administration on the last day and weighed, and the tumor tissue was weighed.

mouse melanoma B16F10 [3] = tested on: mouse melanoma B16F10
Description: as §1, §2
Animal grouping and administration: On the second day after tumor fluid inoculation of C57B/L mice, tumor-bearing mice were randomly grouped: a control group, a Compound 8-5 mg/kg group, a Compound 8-10 mg/kg group, a Compound 8-20 mg/kg group, and a positive control drug cyclophosphamide CTX-100 mg/kg group. The animals were weighed and administered daily. The drugs to be tested were administered orally daily, and the positive control drug CTX was administered intraperitoneally once. After the experiment was completed, the body weights and tumor weights of the animals were weighed, and the tumor weight inhibition rate (%) was calculated.

[4] = HEPA1-6, 10 mg/kg po once a day
[5] = HEPA1-6, 20 mg/kg po once a day
[6] = B16F10, 40 mg/kg, table prints po, text says intraperitoneally

| Compound | Inhibition rate ([1]; HEPA1-6, 5 mg/kg po once a day) [%] | Tumor weight ([1]; HEPA1-6, 5 mg/kg po once a day) [g] | Inhibition rate [1, 4] [%] | Tumor weight [1, 4] [g] | Inhibition rate [1, 5] [%] | Tumor weight [1, 5] [g] | Inhibition rate (mouse melanoma B16F10 [2]; B16F10, 20 mg/kg po once a day) [%] | Tumor weight (mouse melanoma B16F10 [2]; B16F10, 20 mg/kg po once a day) [g] | Inhibition rate (mouse melanoma B16F10 [2]; B16F10, 30 mg/kg po once a day) [%] | Tumor weight (mouse melanoma B16F10 [2]; B16F10, 30 mg/kg po once a day) [g] | Inhibition rate (mouse melanoma B16F10 [2]; [6]) [%] | Tumor weight (mouse melanoma B16F10 [2]; [6]) [g] | Inhibition rate (mouse melanoma B16F10 [3]; B16F10, 5 mg/kg orally daily) [%] | Tumor weight (mouse melanoma B16F10 [3]; B16F10, 5 mg/kg orally daily) [g] | Inhibition rate (mouse melanoma B16F10 [3]; B16F10, 10 mg/kg orally daily) [%] | Tumor weight (mouse melanoma B16F10 [3]; B16F10, 10 mg/kg orally daily) [g] | Inhibition rate (mouse melanoma B16F10 [3]; B16F10, 20 mg/kg orally daily) [%] | Tumor weight (mouse melanoma B16F10 [3]; B16F10, 20 mg/kg orally daily) [g] |
| --- | --- | --- | --- | --- | --- | --- | --- | --- | --- | --- | --- | --- | --- | --- | --- | --- | --- | --- |
| CCCCCCOc1ccc2cc1-c1cc(ccc1OCCCCCC)C(=O)CCCCCC2=O [Compound 4] | 24.72 | 0.510 ± 0.312 | 52 | 0.325 ± 0.256 | 36.56 | 0.430 ± 0.140 | 55.12 | 1.304 ± 0.623 | 28.00 | 2.091 ± 1.199 | 44.40 | 1.615 ± 0.495 | – | – | – | – | – | – |
| CCCCCCOc1ccc(C(=O)O)cc1-c1cc(C(=O)NCCCCNC(=O)C(F)(F)F)ccc1OCCCCCC [Compound 8] | – | – | – | – | – | – | – | – | – | – | – | – | 16.94 | 1.50 ± 0.27 | 19.78 | 1.45 ± 0.70 | 53.64 | 0.80 ± 0.46 |

Reference: patent publication EP4527828A1, “BIPHENYL COMPOUND, PHARMACEUTICAL COMPOSITION, METHOD FOR PREPARING SAME, AND USE THEREOF” (Longivitron (Suzhou) Biotechnology Co., Ltd, priority 2022, dated 2023)
